Reference: PubChem BioAssay AID1261 (University of Pittsburgh Molecular Library Screening Center, 2008)
Inconclusive results are not listed. Calls of active or inactive are those of the source. How the calls were made is not given here.

Target: Tyrosine-protein phosphatase YopH [Yersinia enterocolitica]
Assay: potency against Yersinia YopH phosphatase – biochemical, 10-point dose range, dose response (AID 1261)
Conditions: YopH phosphatase enzymatic assay, IC50, 3 runs

With CCOC(=O)/C(N=Nc1ccc(F)cc1)=C(/O)c1ccc([N+](=O)[O-])cc1 the IC50 was > 50 µM (inactive).
With CCOC(=O)C1=C(C)NC2(O)c3ccccc3C(=O)C12O (stereo not drawn) the IC50 was > 50 µM (inactive).
With CCCCOC(=O)C1=C(C)NC2(O)c3ccccc3C(=O)C12O (stereo not drawn) the IC50 was > 50 µM (inactive).
CSc1nsc(/C=C/Nc2ccc(Cl)cc2)c1C#N was tested, and the IC50 was > 50 µM (inactive).
With CC1=C(C(=O)OCC(C)C)C2(O)C(=O)c3ccccc3C2(O)N1 (stereo not drawn) the IC50 was > 50 µM (inactive).
In the case of C=CCOC(=O)C1=C(C)NC2(O)c3ccccc3C(=O)C12O (stereo not drawn), the IC50 is reported as > 50 µM (inactive).
With CCN(CC)c1ccc(/C=N/Nc2ccccc2)c(O)c1 the IC50 was > 50 µM (inactive).
For COc1cc(C2C(C(=O)OC(C)C)=C(C)Nc3[nH]c(=O)[nH]c(=O)c32)ccc1O (stereo not drawn), the IC50 was > 50 µM (inactive).
For Cc1ccc(NC2=C(NCCO)C(=O)c3ccccc3C2=O)cc1, the IC50 was > 50 µM (inactive).

Same assay, conditions: YopH phosphatase enzymatic assay, IC50, 3 runs; inhibition; at 50 µM; stronger effect = higher value

In order of rising inhibition:
1. O=C(O)c1ccccc1SCC(=O)N1c2ccccc2Sc2ccccc21  -57.4%
2. O=C(O)C1OC(Oc2cc3oc(-c4ccccc4)cc(=O)c3c(O)c2O)C(O)C(O)C1O (stereo not drawn)  -26.6%
3. Cc1cc(C)nc(SCC(=O)Oc2ccc3oc(=O)cc(C)c3c2)n1  -24.4%
4. CCn1c(-c2cc(OC)c(OC)c(OC)c2)n[nH]c1=S  -24%
5. O=C(COC(=O)c1ccc([N+](=O)[O-])s1)Nc1ccccc1  -23.9%
6. COCCCNC(=O)C1CCCN(C(=O)Nc2ccc(OC)cc2)C1 (stereo not drawn)  -19.6%
7. CN(C(=O)COc1ccc(C(C)(C)C)cc1)C1CCS(=O)(=O)C1 (stereo not drawn)  -19.1%
8. COC(=O)Cc1cnc(NC(=O)C2C3CCC(C3)C2C(=O)O)s1 (stereo not drawn)  -18.2%
9. O=C(CSc1ncn[nH]1)c1ccc2c(c1)OCO2  -17.6%
10. COCCCNC(=O)CCCC(=O)NCCCOC  -17.3%
11. N#Cc1c(N)n(CCNC(=O)c2cccs2)c2nc3ccccc3nc12  -16.9%
12. COC(=O)CSc1nnc(CNC(=O)c2cccc(C)c2)n1-c1ccccc1OC  -14.7%
13. O=C(NN=c1c(=O)c2ccccc2c1=O)c1ccccc1  -14.5%
14. CCOC(=O)N1CCN(C(=O)Cn2c(C)cc3ccccc3c2=O)CC1  -14.1%
15. CCOC(=O)Oc1ccc2oc(=O)cc(C)c2c1  -13.7%
16. CCN(CC)c1ccc(/C=N/Nc2ccccc2)c(O)c1  -13.5%
17. O=C(/C(=C(\[O-])c1ccccc1)[n+]1ccc2ccccc2c1)c1ccccc1  -13.2%
18. CC(C)N(C(=O)COc1ccc(Br)cc1Cl)C(C)C  -12.6%
19. O=C1CCC(=O)N1CC(=O)N1c2ccccc2Sc2ccccc21  -12.5%
20. Cc1noc(NS(=O)(=O)c2ccc(NC(=O)CCCOc3ccc(Cl)cc3Cl)cc2)c1C  -12.1%
21. N#Cc1ccccc1Cn1cc(C#N)c2ccccc21  -11.8%
22. CCOc1ccc(-c2nnc3ccc(SCC(=O)Nc4nc5ccccc5s4)nn23)cc1  -11.8%
23. O=C(c1cccs1)N1CCN=C1SCc1cccnc1  -11.7%
24. CCCNc1nc2c(c(=O)[nH]c(=O)n2C)n1Cc1ccc(F)cc1  -11.6%
25. O=C(CSc1nnc(-c2ccccc2)o1)n1c2c(c3ccccc31)CCCC2  -10.9%
26. O=C(NC(C(=O)O)c1ccccc1)c1ccc(S(=O)(=O)N2CCOCC2)cc1 (stereo not drawn)  -10.8%
27. COCCCNC(=O)CC(NS(=O)(=O)c1ccc(F)cc1)c1ccc(OC)cc1 (stereo not drawn)  -10.7%
28. COc1ccc(-c2nnc(SCC(=O)c3cccs3)o2)c(OC)c1  -10.6%
29. Cc1cccc(OCCCCc2c(C)n[nH]c2C)c1  -10.5%
30. Cc1csc(N2CCc3ccccc32)n1  -9.56%
31. COC(=O)c1ccc(Cl)c(NC(=O)CN2CCN(Cc3ccccc3)CC2)c1  -9.15%
32. N[C@@H](C(=O)N[C@@H]1C(=O)N2C(C(=O)O)=C(Cl)CS[C@H]12)c1ccccc1  -8.78%
33. O=C(Nc1nnc(C(F)(F)F)s1)c1ccc(N2C(=O)C3C4C=CC(C4)C3C2=O)cc1 (stereo not drawn)  -8.43%
34. CCC(=O)Nc1nonc1-c1nc2ccccc2n1CCC(C)C  -8.12%
35. CC1(C)COC(/C=C/c2ccc([N+](=O)[O-])cc2)=N1  -8.03%
36. CC(=O)Nc1ccc(-c2nnc(SCC(=O)n3c4c(c5ccccc53)CCCC4)n2C)cc1  -7.8%
37. COc1ccc(N2C(=O)[C@@H]3[C@H](C2=O)[C@H]2c4ccccc4C=CN2[C@@H]3C(C)=O)cc1  -6.89%
38. Cc1[nH]n(-c2ccccc2)c(=O)c1C(C[N+](=O)[O-])c1ccc(Cl)cc1 (stereo not drawn)  -6.86%
39. CSc1nsc(/C=C/Nc2ccc(Cl)cc2)c1C#N  -6.81%
40. Cc1ccc(CSCCNC(=O)CN2C(=O)c3ccccc3S2(=O)=O)cc1  -6.7%
41. CCOC(=O)c1nc(C)n(-c2ccc(Cl)cc2)n1  -5.92%
42. O=C(c1ccco1)N1CCN(CC(=O)N2CCCc3c2c(=O)oc2ccc(O)cc32)CC1  -5.68%
43. CCOC(=O)/C(N=Nc1ccc(F)cc1)=C(/O)c1ccc([N+](=O)[O-])cc1  -5.66%
44. COc1ccccc1NC(=O)N1CCC(C(=O)c2ccc(F)cc2)CC1  -5.37%
45. CCC(=O)N1Cc2ccccc2-c2ccccc2C1=O  -4.86%
46. O=C(CN1C(=O)C2CC=CCC2C1=O)Nc1nnc(SCc2ccc(Cl)cc2)s1 (stereo not drawn)  -4.26%
47. Cc1nc2ccccc2c(=O)n1NC(=O)c1c(O)c2c(n(CC(C)C)c1=O)CCCC2  -4.05%
48. Cc1ccc(C(=O)N2C(=S)C(c3ccc(F)cc3)=NC23CCN(C)CC3)cc1  -3.79%
49. CCOC(=O)COc1cc(=O)n(CC)c2ccccc12  -3.72%
50. Oc1ccc(C=Nc2ccc3ncccc3c2)c(O)c1  -3.62%
51. O=C(NCc1ccccc1)C1CCCN1S(=O)(=O)c1cccc2cccnc12 (stereo not drawn)  -2.68%
52. CC(=O)OCCCNc1cc(SCc2ccco2)c2nonc2c1[N+](=O)[O-]  -2.61%
53. Cc1oc2ccccc2c1-c1cn2c(n1)SCC2  -2.41%
54. COc1ccccc1N1C(C)=CC(=C(C#N)c2nc3ccccc3s2)C=C1C  -2.35%
55. c1ccc(-c2csc3ncnc(NCCCN4CCOCC4)c23)cc1  -1.85%
56. O=C(/C=C/c1ccc([N+](=O)[O-])cc1)OCC(=O)N1c2ccccc2Sc2ccccc21  -1.56%
57. CCOc1ccc(C(=S)N2CCOCC2)cc1OC  -1.37%
58. CN(CC(=O)N1CCCc2c1c(=O)oc1ccc(O)cc21)Cc1ccccc1  -1.35%
59. COc1ccccc1-c1c(C)nn2c(N3CCCCCC3)cc(C)nc12  -1.28%
60. Cc1ccc(NC(=O)c2ccnc(C(C)(C)C)c2)cc1  -1.22%
61. Cc1ccc(N2C(=O)[C@@H]3[C@H](C2=O)C2c4ccccc4C=CN2[C@@H]3C(=O)c2ccco2)cc1 (stereo partly drawn)  -1.17%
62. O=C(O)c1ccc(NC2=C(N3CCOCC3)C(=O)c3ccccc3C2=O)cc1  -0.899%
63. CCN1CCN(CCCOc2ccc(-c3ccccc3)cc2)CC1  -0.391%
64. COc1ccc(CCN2C(=O)c3ccncc3C2=O)cc1OC  0.113%
65. Cc1c(Br)cc(C(=O)OC2CCN(C)CC2)c(C)c1C  0.211%
66. O=C(NC(Cc1c[nH]c2ccccc12)c1nnc2n1CCCCC2)c1cccs1 (stereo not drawn)  0.82%
67. Cc1ccc2c(C)[nH]c(=O)cc2c1  0.968%
68. CC1=CC(=C(C#N)c2nc3ccccc3s2)C=C(C)N1c1ccc(F)cc1F  1.55%
69. [O-]/[N+](=C\c1ccc(F)cc1)c1ccccc1  2.44%
70. CCOC(=O)c1c(C)oc2c1c(C=NCc1ccccn1)c(O)c1ccccc12  2.53%
71. CCOC(=O)C(NC(=O)Nc1ccccc1)(OCC)C(F)(F)F (stereo not drawn)  2.58%
72. COc1ccc(CN2C(=O)c3ccccc3C(/C=N\OCc3ccc(F)cc3)C2=O)cc1 (stereo not drawn)  3.35%
73. S=c1[nH]nc(-c2ccccc2)n1/N=C/C=C/c1ccco1  3.47%
74. COc1cc(C2C(C(=O)OC(C)C)=C(C)Nc3[nH]c(=O)[nH]c(=O)c32)ccc1O (stereo not drawn)  4.55%
75. COC(=O)N(NC(=O)C(O)(CCC(C)C)CCC(C)C)c1ccccc1  4.94%
76. CC(=O)N1C(=O)/C(=C2\SC(=S)N(c3c(C)n(C)n(-c4ccccc4)c3=O)C2=O)c2ccccc21  4.95%
77. CC(=O)[C@H]1[C@@H]2C(=O)N(c3cccc(Cl)c3)C(=O)[C@@H]2[C@H]2c3ccccc3C=CN21  5.01%
78. Cc1ccc(NC2=C(NCCO)C(=O)c3ccccc3C2=O)cc1  7.47%
79. CC1=CC(=C(C#N)c2nc3ccccc3s2)C=C(C)N1c1ccc(F)cc1  8.34%
80. CC(=O)NC1=C(N(C)C2CCS(=O)(=O)C2)C(=O)c2ccccc2C1=O (stereo not drawn)  9.79%
81. C#CCn1cc(C=C2C(=O)c3ccccc3C2=O)c2ccccc21  11.1%
82. Cc1ccc(S(=O)(=O)N2CCCC(C(=O)NCc3ccco3)C2)cc1Cl (stereo not drawn)  12.9%
83. O=C(c1ccc(F)cc1)[C@@H]1[C@@H](C(=O)c2ccccc2)[C@@]2(C(=O)Nc3ccccc32)[C@H]2c3ccccc3C=CN12  13.8%
84. Cc1ccccc1/[N+]([O-])=C/c1ccncc1  15.6%
85. CCc1ccc(S(=O)(=O)/N=C2/C=C(Sc3ncn[nH]3)C(=O)c3ccccc32)cc1  17.2%
86. O=C(/C=C/c1ccc(O)cc1)c1ccc(NC2=C(N3CCCCC3)C(=O)c3ccccc3C2=O)cc1  18.9%
87. CN1C(=O)C(Cc2cccc3ccccc23)C(=O)N(C)C1=O  20.5%
88. O=[N+]([O-])c1ccc(-c2csc3[n+]2CCS3)cc1  20.8%
89. Nc1nnc2c(n1)CCCC2  23%
90. C=CCc1cccc2cc(C(=O)Nc3ccc(S(=O)(=O)Nc4nnc(CC)s4)cc3)c(=O)oc12  23.8%
91. C=CCOC(=O)C1=C(C)NC2(O)c3ccccc3C(=O)C12O (stereo not drawn)  24.6%
92. CN(C1=C(NC(=O)c2ccccc2)C(=O)c2ccccc2C1=O)C1CCS(=O)(=O)C1 (stereo not drawn)  27%
93. O=c1[nH]c(Nc2ccc(F)cc2)cc2ccccc12  28.2%
94. CCN1CCC2(CC1)N=C(c1ccc(F)cc1)C(=S)N2C(=O)c1ccc(C)cc1  28.6%
95. CC(C)(C)c1cc(OC(=O)c2ccncc2)ccc1O  30.2%
96. CC(=O)c1ccc(NC2=C(N3CCOCC3)C(=O)c3ccccc3C2=O)cc1  30.4%
97. CC1=C(C(=O)OCC(C)C)C2(O)C(=O)c3ccccc3C2(O)N1 (stereo not drawn)  31.7%
98. CCCCn1c(N)c(NCCC(C)C)c(=O)[nH]c1=O  33%
99. Cc1ccc(NC2=C(N3CCCCC3)C(=O)c3ccccc3C2=O)cc1  35.4%
100. O=C1C(Nc2cccc(O)c2)=C(N2CCCCC2)C(=O)c2ccccc21  35.8%
101. CCCCOC(=O)C1=C(C)NC2(O)c3ccccc3C(=O)C12O (stereo not drawn)  36.9%
102. CCOC(=O)C1=C(C)NC2(O)c3ccccc3C(=O)C12O (stereo not drawn)  40%
103. O=C(OCC1O[C@@H](OC(=O)c2cc(O)c(O)c(O)c2)[C@@H](OC(=O)c2cc(O)c(O)c(O)c2)[C@@H](OC(=O)c2cc(O)c(O)c(O)c2)[C@@H]1OC(=O)c1cc(O)c(O)c(O)c1)c1cc(O)c(O)c(O)c1 (stereo partly drawn)  72.5%
104. O=C1c2ccccc2C(=O)C12OC2c1cccc2ccccc12 (stereo not drawn)  80.3%
